The text below walks through data of patent US10030047B2 (Hoffmann-La Roche Inc., priority 2015, dated 2018).

What is called MIC is the least concentration at which growth counts as inhibited.

≈ marks a conversion by molar mass, not a printed value.

The experiment relates to A. baumannii strain ATCC19606. Description: Minimum inhibitory concentration (MIC) determination, microbroth dilution (CLSI). The format is cell-based. The conditions noted are these: Acinetobacter baumannii; A. baumannii ATCC19606; CAMHB; read after 20 hours; >=80% growth inhibition; read-out: ATCC19606 MIC. An outline of the steps:
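After 20 h at 35±2 °C, MIC taken visually and by OD 600 nm as the lowest concentration giving ≥80% growth inhibition. Bacteria (~5×10^5 CFU/ml) were tested per CLSI microbroth dilution against twofold serial compound dilutions in cation-adjusted Mueller Hinton broth.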
For orientation: Dilution methods test growth across graded concentrations, often in twofold steps.
As to `CN1C(=O)[C@H](CCCCN)NC(=O)[C@H](Cc2cccnc2)NCc2cccnc2Sc2c(Cl)cc(C(F)(F)F)cc2CNC(=O)[C@@H]1Cc1c[nH]c2ccccc12` [Example 86, (11S,14S,17S)-14-(4-Amino-butyl)-25-chloro-17-(1H-indol-3-ylmethyl)-16-methyl-11-pyridin-3-ylmethyl-23-trifluoromethyl-2-thia-4,10,13,16,19-pentaaza-tricyclo[19.4.0.0*3,8*]pentacosa-1(25),3(8),4,6,21,23-hexaene-12,15,18-trione], the MIC stood at 16 µg/mL (≈ 19.8 µM).
In the case of `CN1C(=O)[C@H](CCCCN)NC(=O)[C@H](CCCN)NCc2cccnc2Sc2c(cc(-c3ccccc3)cc2C(F)(F)F)CNC(=O)[C@@H]1Cc1c[nH]c2ccccc12` [Example 87, (11S,14S,17S)-14-(4-Amino-butyl)-11-(3-amino-propyl)-17-(1H-indol-3-ylmethyl)-16-methyl-23-phenyl-25-trifluoromethyl-2-thia-4,10,13,16,19-pentaaza-tricyclo[19.4.0.0*3,8*]pentacosa-1(25),3,5,7,21,23-hexaene-12,15,18-trione] it was 8 µg/mL (≈ 9.82 µM); in that of `CN1C(=O)[C@H](CCCCN)NC(=O)[C@H](CCCN)NCc2cccnc2Sc2c(cc(Br)cc2C(F)(F)F)CNC(=O)[C@@H]1Cc1c[nH]c2ccccc12` [Example 88, (11S,14S,17S)-14-(4-Amino-butyl)-11-(3-amino-propyl)-23-bromo-17-(1H-indol-3-ylmethyl)-16-methyl-25-trifluoromethyl-2-thia-4,10,13,16,19-pentaaza-tricyclo[19.4.0.0*3,8*]pentacosa-1(25),3,5,7,21,23-hexaene-12,15,18-trione], 0.25 µg/mL (≈ 0.306 µM).
Take `CN1C(=O)[C@H](CCCCN)NC(=O)[C@H](CCCN)NCc2cccnc2Sc2c(Cl)cc(Br)cc2CNC(=O)[C@@H]1Cc1c[nH]c2ccccc12` [Example 89, (11S,14S,17S)-14-(4-Amino-butyl)-11-(3-amino-propyl)-23-bromo-25-chloro-17-(1H-indol-3-ylmethyl)-16-methyl-2-thia-4,10,13,16,19-pentaaza-tricyclo[19.4.0.0*3,8*]pentacosa-1(25),3,5,7,21,23-hexaene-12,15,18-trione]: the minimum inhibitory concentration (MIC) was 0.12 µg/mL (≈ 0.153 µM).
The figure for `CN1C(=O)[C@H](CCCCN)NC(=O)[C@H](CCCN)NCc2cccnc2Sc2c(Cl)ccc(Br)c2CNC(=O)[C@@H]1Cc1c[nH]c2ccccc12` [Example 90, (11S,14S,17S)-14-(4-Amino-butyl)-11-(3-amino-propyl)-22-bromo-25-chloro-17-(1H-indol-3-ylmethyl)-16-methyl-2-thia-4,10,13,16,19-pentaaza-tricyclo[19.4.0.0*3,8*]pentacosa-1(25),3,5,7,21,23-hexaene-12,15,18-trione] is 0.25 µg/mL (≈ 0.319 µM).
The figure for `CN1C(=O)[C@H](CCCCN)NC(=O)[C@H](CCCN)NCc2cccnc2Sc2c(cc(C(F)(F)F)cc2C(F)(F)F)CNC(=O)[C@@H]1Cc1c[nH]c2ccccc12` [Example 91, (11S,14S,17S)-14-(4-Amino-butyl)-11-(3-amino-propyl)-17-(1H-indol-3-ylmethyl)-16-methyl-23,25-bis-trifluoromethyl-2-thia-4,10,13,16,19-pentaaza-tricyclo[19.4.0.0*3,8*]pentacosa-1(25),3,5,7,21,23-hexaene-12,15,18-trione] is 0.5 µg/mL (≈ 0.62 µM).
`CN1C(=O)[C@H](CCCCN)NC(=O)[C@H](CCCN)NCc2cccnc2Sc2c(Cl)cc(N3CCOCC3)cc2CNC(=O)[C@@H]1Cc1c[nH]c2ccccc12` [Example 92, (11S,14S,17S)-14-(4-Amino-butyl)-11-(3-amino-propyl)-25-chloro-17-(1H-indol-3-ylmethyl)-16-methyl-23-morpholin-4-yl-2-thia-4,10,13,16,19-pentaaza-tricyclo[19.4.0.0*3,8*]pentacosa-1(25),3,5,7,21,23-hexaene-12,15,18-trione]: the minimum inhibitory concentration (MIC) was determined as 0.5 µg/mL (≈ 0.633 µM).
The figure for `CN1C(=O)[C@H](CCCCN)NC(=O)CNCc2cccnc2Sc2c(Cl)cc(Cl)cc2CNC(=O)[C@@H]1Cc1c[nH]c2ccccc12` [Example 93, (14S,17S)-14-(4-Amino-butyl)-23,25-dichloro-17-(1H-indol-3-ylmethyl)-16-methyl-2-thia-4,10,13,16,19-pentaaza-tricyclo[19.4.0.0*3,8*]pentacosa-1(25),3,5,7,21,23-hexaene-12,15,18-trione] is 16 µg/mL (≈ 23.4 µM).
Regarding `C[C@@H]1NCc2cccnc2Sc2c(Cl)cc(Cl)cc2CNC(=O)[C@H](Cc2c[nH]c3ccccc23)N(C)C(=O)[C@H](CCCCN)NC1=O` [Example 94, (11S,14S,17S)-14-(4-Amino-butyl)-23,25-dichloro-17-(1H-indol-3-ylmethyl)-11,16-dimethyl-2-thia-4,10,13,16,19-pentaaza-tricyclo[19.4.0.0*3,8*]pentacosa-1(25),3,5,7,21,23-hexaene-12,15,18-trione], the MIC was found to be 1 µg/mL (≈ 1.44 µM).
The figure for `CC(C)[C@@H]1NCc2cccnc2Sc2c(Cl)cc(Cl)cc2CNC(=O)[C@H](Cc2c[nH]c3ccccc23)N(C)C(=O)[C@H](CCCCN)NC1=O` [Example 95, (11S,14S,17S)-14-(4-Amino-butyl)-23,25-dichloro-17-(1H-indol-3-ylmethyl)-11-isopropyl-16-methyl-2-thia-4,10,13,16,19-pentaaza-tricyclo[19.4.0.0*3,8*]pentacosa-1(25),3,5,7,21,23-hexaene-12,15,18-trione] is 8 µg/mL (≈ 11 µM).
In the case of `CN1C(=O)[C@H](CCCCN)NC(=O)[C@H](CO)NCc2cccnc2Sc2c(Cl)cc(Cl)cc2CNC(=O)[C@@H]1Cc1c[nH]c2ccccc12` [Example 96, (11S,14S,17S)-14-(4-Amino-butyl)-23,25-dichloro-11-hydroxymethyl-17-(1H-indol-3-ylmethyl)-16-methyl-2-thia-4,10,13,16,19-pentaaza-tricyclo[19.4.0.0*3,8*]pentacosa-1(25),3,5,7,21,23-hexaene-12,15,18-trione] it was 4 µg/mL (≈ 5.61 µM); in that of `CN1C(=O)[C@H](CCCCN)NC(=O)[C@H](CCCN)NCc2nccnc2Sc2c(Cl)cc(C(F)(F)F)cc2CNC(=O)[C@@H]1Cc1c[nH]c2ccccc12` [Example 97, (11S,14S,17S)-14-(4-Amino-butyl)-11-(3-amino-propyl)-25-chloro-17-(1H-indol-3-ylmethyl)-16-methyl-23-trifluoromethyl-2-thia-4,7,10,13,16,19-hexaaza-tricyclo[19.4.0.0*3,8*]pentacosa-1(21),3,5,7,22,24-hexaene-12,15,18-trione], 0.12 µg/mL (≈ 0.155 µM); in that of `CN1C(=O)[C@H](CCCCN)NC(=O)[C@H](CCCN)NCc2nccnc2Sc2c(Cl)ccc(C(F)(F)F)c2CNC(=O)[C@@H]1Cc1c[nH]c2ccccc12` [Example 98, (11S,14S,17S)-14-(4-Amino-butyl)-11-(3-amino-propyl)-25-chloro-17-(1H-indol-3-ylmethyl)-16-methyl-22-trifluoromethyl-2-thia-4,7,10,13,16,19-hexaaza-tricyclo[19.4.0.0*3,8*]pentacosa-1(21),3,5,7,22,24-hexaene-12,15,18-trione], 0.12 µg/mL (≈ 0.155 µM).
`CN1C(=O)[C@H](CCCCN)NC(=O)[C@H](CCCN)NCc2cccnc2Sc2c(Cl)cc(-c3cccnc3)cc2CNC(=O)[C@@H]1Cc1c[nH]c2ccccc12` [Example 99, (11S,14S,17S)-14-(4-Amino-butyl)-11-(3-amino-propyl)-25-chloro-17-(1H-indol-3-ylmethyl)-16-methyl-23-pyridin-3-yl-2-thia-4,10,13,16,19-pentaaza-tricyclo[19.4.0.0*3,8*]pentacosa-1(25),3,5,7,21,23-hexaene-12,15,18-trione]: the MIC is 4 µg/mL (≈ 5.11 µM).
As to `CN1C(=O)[C@H](CCCCN)NC(=O)[C@H](CCCN)NCc2cccnc2Sc2c(Cl)cc(-c3ccncc3)cc2CNC(=O)[C@@H]1Cc1c[nH]c2ccccc12` [Example 100, (11S,14S,17S)-14-(4-Amino-butyl)-11-(3-amino-propyl)-25-chloro-17-(1H-indol-3-ylmethyl)-16-methyl-23-pyridin-4-yl-2-thia-4,10,13,16,19-pentaaza-tricyclo[19.4.0.0*3,8*]pentacosa-1(25),3,5,7,21,23-hexaene-12,15,18-trione], the minimal inhibitory concentration (MIC) stood at 2 µg/mL (≈ 2.56 µM).
In the case of `CC(C)C[C@@H]1NCc2cccnc2Sc2c(Cl)cc(Cl)cc2CNC(=O)[C@H](Cc2c[nH]c3ccccc23)N(C)C(=O)[C@H](CCCCN)NC1=O` [Example 101, (11S,14S,17S)-14-(4-Amino-butyl)-23,25-dichloro-17-(1H-indol-3-ylmethyl)-11-isobutyl-16-methyl-2-thia-4,10,13,16,19-pentaaza-tricyclo[19.4.0.0*3,8*]pentacosa-1(25),3,5,7,21,23-hexaene-12,15,18-trione] it was 32 µg/mL (≈ 43.3 µM).
In the case of `COc1cc(-c2cc(Cl)c3c(c2)CNC(=O)[C@H](Cc2c[nH]c4ccccc24)N(C)C(=O)[C@H](CCCCN)NC(=O)[C@H](CCCN)NCc2cccnc2S3)ccn1` [Example 102, (11S,14S,17S)-14-(4-Amino-butyl)-11-(3-amino-propyl)-25-chloro-17-(1H-indol-3-ylmethyl)-23-(2-methoxy-pyridin-4-yl)-16-methyl-2-thia-4,10,13,16,19-pentaaza-tricyclo[19.4.0.0*3,8*]pentacosa-1(25),3,5,7,21,23-hexaene-12,15,18-trione] it was 0.5 µg/mL (≈ 0.615 µM).
As to `CN1C(=O)[C@H](CCCCN)NC(=O)[C@H](CCC(N)=O)NCc2cccnc2Sc2c(Cl)cc(Cl)cc2CNC(=O)[C@@H]1Cc1c[nH]c2ccccc12` [Example 103, 3-[(11S,14S,17S)-14-(4-Amino-butyl)-23,25-dichloro-17-(1H-indol-3-ylmethyl)-16-methyl-12,15,18-trioxo-2-thia-4,10,13,16,19-pentaaza-tricyclo[19.4.0.0*3,8*]pentacosa-1(25),3,5,7,21,23-hexaen-11-yl]-propionamide], the minimum inhibitory concentration (MIC) was 0.25 µg/mL (≈ 0.332 µM).
In the case of `CN1C(=O)[C@H](CCCCN)NC(=O)[C@H](CCCN)NCc2ncccc2Sc2c(Cl)ccc(Cl)c2CNC(=O)[C@@H]1Cc1c[nH]c2ccccc12` [Example 104, (11S,14S,17S)-14-(4-Amino-butyl)-11-(3-amino-propyl)-22,25-dichloro-17-(1H-indol-3-ylmethyl)-16-methyl-2-thia-7,10,13,16,19-pentaaza-tricyclo[19.4.0.0*3,8*]pentacosa-1(21),3,5,7,22,24-hexaene-12,15,18-trione] it was 2 µg/mL (≈ 2.7 µM).
